Experimental data reported in patent US11976062B2, “Benzisoxazole compound” (OSAKA UNIVERSITY, priority 2018, dated 2024).

Target: T1, TRPC3 channel (Homo sapiens, UniProt Q13507)
T1 construct: expressed in transfected cells; host or cells: HEK293
T1 sequence (Q13507 1-921): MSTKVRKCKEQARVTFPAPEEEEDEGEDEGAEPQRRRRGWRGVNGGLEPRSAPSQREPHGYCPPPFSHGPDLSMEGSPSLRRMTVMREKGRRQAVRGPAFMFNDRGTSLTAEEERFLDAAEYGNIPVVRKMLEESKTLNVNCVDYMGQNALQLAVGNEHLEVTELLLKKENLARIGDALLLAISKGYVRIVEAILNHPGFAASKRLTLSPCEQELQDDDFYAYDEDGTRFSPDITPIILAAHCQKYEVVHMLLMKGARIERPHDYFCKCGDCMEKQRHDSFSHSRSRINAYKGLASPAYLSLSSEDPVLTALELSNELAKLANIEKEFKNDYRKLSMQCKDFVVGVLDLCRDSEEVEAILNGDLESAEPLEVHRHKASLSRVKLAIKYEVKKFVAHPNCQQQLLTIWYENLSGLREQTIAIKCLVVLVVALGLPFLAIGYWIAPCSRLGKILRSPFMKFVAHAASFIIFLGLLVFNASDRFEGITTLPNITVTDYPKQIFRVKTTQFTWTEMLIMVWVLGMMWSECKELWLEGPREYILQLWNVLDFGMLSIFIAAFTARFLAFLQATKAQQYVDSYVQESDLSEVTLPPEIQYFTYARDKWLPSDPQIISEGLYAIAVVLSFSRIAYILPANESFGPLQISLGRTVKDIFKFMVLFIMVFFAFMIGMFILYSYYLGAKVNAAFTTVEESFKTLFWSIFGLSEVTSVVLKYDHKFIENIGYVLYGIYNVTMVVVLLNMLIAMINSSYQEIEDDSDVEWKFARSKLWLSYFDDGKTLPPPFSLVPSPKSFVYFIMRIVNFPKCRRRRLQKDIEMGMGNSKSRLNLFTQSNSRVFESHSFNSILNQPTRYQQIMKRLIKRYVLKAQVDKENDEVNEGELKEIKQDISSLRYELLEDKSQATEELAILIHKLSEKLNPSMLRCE
Assay: Calcium assay using HEK293 cells transiently expressing TRPC3 channel, carbachol activation (Fura-2)
Type: cell-based
Protocol: A TRPC6 gene was introduced into HEK293 cells (cells derived from human fetal kidney) by lipofection, and the TRPC6 channel was expressed on the cell membrane. Specifically, the plasmid DNA of TRPC6 (pCI-neo; Promega Corporation) was introduced into HEK293 cells using a lipofection reagent, and then cultured at 37° C. for 24 to 48 hours to express the TRPC6 channel on the cell membrane. In the same manner, HEK293 cells into which the TRPC3 gene was introduced were cultured, and the TRPC3 channel was expressed on the cell membrane.
The cultured cells were peeled off with trypsin and seeded on a cover glass again, followed by culturing the cells at 37° C. for 3 hours again. A Fura-2 AM calcium indicator was added to the medium, and the cells were cultured at 37° C. for 30 minutes to allow the cells to incorporate the indicator. For the extracellular solution, a Ca^2+-containing solution and a Ca^2+-free solution were prepared. • Ca^2+-containing solution: 2 mM CaCl2, 132 mM NaCl, 4 mM KCl, 1 mM MgCl2, 5 mM glucose, 5 mM HEPES (pH 7.4) • Ca^2+-free solution: 132 mM NaCl, 4 mM KCl, 1 mM MgCl2, 5 mM glucose, 5 mM HEPES (pH 7.4) […]

Ca2+ concentration in the cells reached after addition of carbachol (TRPC3, FIG. 2, from about 100 nM, control (DMSO) about 350 nM): about 180 nM | IC50 (TRPC3-expressing HEK293 cells, carbachol 100 μM, from concentration-response curves, read-out: IC50 for inhibition of the TRPC3 channel): 700 nM
SMILES: O=C(O)c1cnc(N2CCN(c3noc4cccc(C(F)(F)F)c34)CC2)c(Cl)c1 [Compound 011, 5-chloro-6-(4-(4-(trifluoromethyl)benzo[d]isoxazol-3-yl)piperazin-1-yl) nicotinic acid]
